Values of other authors as cited in article PMC7664160 (ACS infectious diseases, 2020).

Tested on: intracellular C. neoformans

Row | SMILES | fungicidal activity against intraphagocytic C. neoformans
1 | OC(Cn1cncn1)(Cn1cncn1)c1ccc(F)cc1F [fluconazole] | neither fluconazole nor amphotericin B have fungicidal activity
2 | C[C@@H]1[C@H](O)[C@@H](C)/C=C/C=C/C=C/C=C/C=C/C=C/C=C/[C@H](O[C@@H]2O[C@H](C)[C@@H](O)[C@H](N)[C@@H]2O)C[C@@H]2O[C@](O)(C[C@@H](O)C[C@@H](O)[C@H](O)CC[C@@H](O)C[C@@H](O)CC(=O)O[C@H]1C)C[C@H](O)[C@H]2C(=O)O [amphotericin B] | neither fluconazole nor amphotericin B have fungicidal activity
